{"source": "patent US20210052874A1", "about": "“ULTRASOUND DEVICE AND THERAPEUTIC METHODS” (priority 2011, published 2021)", "test": "In vitro transdermal delivery of carboxyfluorescein through mouse skin in a Franz diffusion cell, with or without low frequency ultrasound (LFUS)", "type": "in vitro ADME", "conditions": "for Delivery Efficiency (% of CF delivered) / Enhancement Ratio v. free CF, no LFUS: mouse skin", "protocol": "An in vitro study was performed to evaluate the ability of the present invention to enable transdermal delivery of substantially intact encapsulated drugs. The study involved applying low intensity, low pressure amplitude ultrasound waves to mouse skin in order to mediate transdermal delivery of liposome encapsulated carboxyfluorescein (CF), a hydrophilic dye. […] In this setup, an ultrasound applicator 10 having 4 transducers 12 arranged in a 2×2 array is supported by a custom fixture 80 and in direct communication with a Franz diffusion cell, including a donor compartment 82 filled with a liquid medium interspersed with liposome encapsulated CF and a sample mouse skin. Low frequency ultrasound waves (LFUS) having a low pressure amplitude of about 55 kPa, a low acoustic intensity of about 100 mW/cm^2 and a low frequency of about 17.9 kHz was generated by ultrasound applicator 10 and directed towards a mouse skin sample 84 positioned adjacent to donor compartment 82 for about 4 hours. The amount of liposome encapsulated CF that permeated mouse skin 84 and collected within a receptor compartment 86 surrounded by a water jacket 88 was examined and measured after about 4 hours of ultrasound application when the ultrasound source was turned off and again 8 hours after the start of the experiment. The liposomes were made from 1,2-dioleoyl-sn-glycerol-3-phosphocholine (DOPC), and the liposome encapsulated CF was prepared using the dehydration-rehydration technique described in Kirby, C. and G. Gregoriadis, “Dehydration rehydration vesicles: a simple method for high yield drug entrapment in liposome,” Nature Biotechnology, 1984, 2(11): p. 9′79-984, herein incorporated by reference. In this experiment, encapsulation efficiency of the CF was improved (about 10% to about 30% measured by titration) by minimizing the amount of rehydration buffer used, adjusting pH before rehydration to fully dissolve CF by minimizing the amount of rehydration buffer used, and by adjusting the pH to about 10 and subsequently adjusting the pH to about 7.4 before rehydration. The original encapsulation efficiency of CF was about 0.67% in 100 nm liposomes, using about 5.2 mg CF in the rehydration buffer (about 2.56 mM). […] Tests D1-D2 show the results for liposome encapsulated CF after exposure to 20 minutes of low frequency ultrasound stimulation. Tests E1-3 show the results for liposome encapsulated CF upon exposure to 4 hours of low frequency ultrasound stimulation.", "data": [{"substance": "carboxyfluorescein [Free CF]", "values": [{"measurement": "Delivery Efficiency (% of CF delivered)", "setting": "4 hr simultaneous LFUS", "result": 0.03, "unit": "%"}, {"measurement": "Enhancement Ratio v. free CF, no LFUS", "setting": "4 hr simultaneous LFUS", "result": 0.00}, {"measurement": "Amount able to permeate the mouse skin", "setting": "after 8 hours, not assisted by ultrasound", "result": "less than 0.005 M/M"}, {"measurement": "Delivery Efficiency (% of CF delivered)", "setting": "no LFUS", "result": 0.03, "unit": "%"}, {"measurement": "Enhancement Ratio v. free CF, no LFUS", "setting": "no LFUS", "result": 0.00}]}]}
